Measurements published in ChEMBL document CHEMBL1158263, “A New Prenylated Flavone from Artocarpus champeden” (J Nat Prod, 1996).
≈ marks a conversion by molar mass, not a printed value.

Assay: Toxicity against Artemia salina
Assay type: organism-based
Conditions: in vivo

Compound: CC(C)=CC1Oc2cc(O)c(O)cc2-c2oc3cc(O)cc(O)c3c(=O)c21 (stereo unspecified) [CYCLOCHAMPEDOL]
- LC50: 15.1 µg/mL (≈ 41 µM)
